Legend:
Assay type in all cases: biochemical
JAK2 = target: T1, JAK2 (Homo sapiens, UniProt O60674); assay: JAK2 inhibition (Table 4); conditions: read-out: JAK2 Ki
T1 construct: made in house; host or cells: SF9 insect cells (baculovirus)

TYK2 = target: T2, TYK2 (Homo sapiens, UniProt P29597); assay: TYK2 inhibition (Table 4)
T2 construct: made in house; host or cells: SF9 insect cells (baculovirus)
T2 sequence (P29597 873-1187): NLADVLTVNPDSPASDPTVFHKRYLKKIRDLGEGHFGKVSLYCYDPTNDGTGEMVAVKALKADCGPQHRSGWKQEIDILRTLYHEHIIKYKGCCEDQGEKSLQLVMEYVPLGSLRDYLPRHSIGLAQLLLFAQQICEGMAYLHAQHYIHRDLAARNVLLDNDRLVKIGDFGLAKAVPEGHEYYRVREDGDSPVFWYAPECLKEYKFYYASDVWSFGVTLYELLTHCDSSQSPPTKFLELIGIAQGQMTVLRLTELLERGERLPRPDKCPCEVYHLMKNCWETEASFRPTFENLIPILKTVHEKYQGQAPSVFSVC

JAK1 = target: T3, JAK1 (Homo sapiens, UniProt P23458); assay: JAK1 inhibition (Table 4); conditions: read-out: JAK1 Ki
T3 construct: made in house; host or cells: SF9 insect cells (baculovirus)

JAK3 = target: T4, JAK3 (Homo sapiens, UniProt P52333); assay: JAK3 inhibition (Table 4); conditions: read-out: JAK3 Ki
T4 construct: made in house; host or cells: SF9 insect cells (baculovirus)
T4 sequence (P52333 783-1124): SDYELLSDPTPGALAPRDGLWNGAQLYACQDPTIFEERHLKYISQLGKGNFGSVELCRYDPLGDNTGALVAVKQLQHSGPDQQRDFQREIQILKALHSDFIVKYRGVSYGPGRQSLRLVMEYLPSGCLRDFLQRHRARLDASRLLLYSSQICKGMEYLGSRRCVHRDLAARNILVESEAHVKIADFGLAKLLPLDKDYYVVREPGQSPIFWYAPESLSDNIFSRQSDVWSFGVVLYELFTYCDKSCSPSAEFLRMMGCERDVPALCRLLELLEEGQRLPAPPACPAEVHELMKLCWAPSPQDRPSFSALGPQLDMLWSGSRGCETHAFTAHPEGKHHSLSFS

T1 sequence (O60674 812-1132): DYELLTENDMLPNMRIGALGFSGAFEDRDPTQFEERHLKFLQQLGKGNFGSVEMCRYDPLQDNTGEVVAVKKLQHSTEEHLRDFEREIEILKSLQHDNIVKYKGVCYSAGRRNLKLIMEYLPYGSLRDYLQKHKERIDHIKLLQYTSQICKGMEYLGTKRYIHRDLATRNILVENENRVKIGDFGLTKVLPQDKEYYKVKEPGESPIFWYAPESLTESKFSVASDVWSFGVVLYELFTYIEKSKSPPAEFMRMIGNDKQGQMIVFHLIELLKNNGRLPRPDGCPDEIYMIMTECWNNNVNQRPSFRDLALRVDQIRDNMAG
T3 sequence (P23458 852-1154): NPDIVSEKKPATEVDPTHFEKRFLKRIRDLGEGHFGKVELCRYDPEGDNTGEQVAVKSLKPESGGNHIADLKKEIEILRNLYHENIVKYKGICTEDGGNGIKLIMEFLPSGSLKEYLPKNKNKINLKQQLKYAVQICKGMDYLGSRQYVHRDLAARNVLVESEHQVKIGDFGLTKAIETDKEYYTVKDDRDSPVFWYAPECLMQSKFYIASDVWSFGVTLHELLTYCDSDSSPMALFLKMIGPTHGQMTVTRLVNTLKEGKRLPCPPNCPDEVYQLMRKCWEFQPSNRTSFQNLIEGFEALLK

SMILES | Ki (JAK2) [nM] | Ki (TYK2) [nM] | Ki (JAK1) [nM] | Ki (JAK3) [nM]
N#C[C@@H]1C[C@@H]1C(=O)N1CCC[C@@H](n2cnc3cnc4[nH]ccc4c32)C1 [Example 340, (1R,2S)-2-[(R)-3-(6H-1,3,5,6-Tetraaza-as-indacen-1-yl)-piperidine-1-carbonyl]-cyclopropanecarbonitrile] | 19.5 | 101 | 17.2 | 24.6
CN([C@H]1CC[C@H](n2cnc3cnc4[nH]ccc4c32)CC1)S(=O)(=O)C1CC1 [Example 341, Cyclopropanesulfonic acid methyl-[4-(6H-1,3,5,6-tetraaza-as-indacen1-yl)-cyclohexyl]-amide] | 7.47 | 106 | 10.2 | 169
CC(C)(O)Cc1nc2cnc3[nH]ccc3c2n1C1CCN(CCC#N)CC1 [Example 346, 3-{4-[2-(2-Hydroxy-2-methyl-propyl)-6H-1,3,5,6-tetraaza-as-indacen-1-yl)-piperidin-1-yl}-propionitrile] | 31.5 | 140 | 13.9 | 51.8
O=C(N[C@H]1CC[C@H](n2cnc3cnc4[nH]ccc4c32)CC1)OC1CCCC1 [Example 347, [4-(6H-1,3,5,6-Tetraaza-as-indacen-1-yl)-cyclohexyl]-carbamic acid cyclopentyl ester] | 14.5 | 130 | 4.96 | 136
CC1(COC(=O)N[C@H]2CC[C@H](n3cnc4cnc5[nH]ccc5c43)CC2)CC1 [Example 348, [4-(6H-1,3,5,6-Tetraaza-as-indacen-1-yl)-cyclohexyl]-carbamic acid 1-methyl-cyclopropylmethyl ester] | 15 | 148 | 5.6 | 78.5
CC(C)(C)OC(=O)N1CCC[C@@H](n2cnc3cnc4[nH]ccc4c32)C1 [Example 349, (R)-3-(6H-1,3,5,6-Tetraaza-as-indacen-1-yl)-piperidine-1-carboxylic acid tert-butyl ester] | 19 | 113 | 15.3 | 120
COC(=O)N[C@H]1CC[C@H](n2nnc3cnc4[nH]ccc4c32)CC1 [Example 353, [4-(6H-1,2,3,5,6-Pentaaza-as-indacen-1-yl)-cyclohexyl]-carbamic acid methyl ester] | 15 | 87.4 | 8.27 | 216
Cc1nc2cnc3[nH]ccc3c2n1C1CCN(CC(O)(C(F)(F)F)C(F)(F)F)CC1 [Example 354, 1,1,1,3,3,3-Hexafluoro-2-[4-(2-methyl-6H-1,3,5,6-tetraaza-as-indacen-1-yl)-piperidin-1-ylmethyl]-propan-2-ol] | 5.24 | 10.9 | 2.5 | 120
COCCOC(=O)N[C@H]1CC[C@H](n2cnc3cnc4[nH]ccc4c32)CC1 [Example 356, [4-(6H-1,3,5,6-Tetraaza-as-indacen-1-yl)-cyclohexyl]-carbamic acid 2-methoxy-ethyl ester] | 28.5 | 192 | 10.6 | 209
CN(C)CCOC(=O)N[C@H]1CC[C@H](n2cnc3cnc4[nH]ccc4c32)CC1 [Example 358, [4-(6H-1,3,5,6-Tetraaza-as-indacen-1-yl)-cyclohexyl]-carbamic acid 2-dimethylamino-ethyl ester] | 82.6 | 147 | 22.2 | 434
O=S(=O)(c1ccccc1)N1CCC[C@@H](n2cnc3cnc4[nH]ccc4c32)C1 [Example 359, 1-((R)-1-Benzenesulfonyl-piperidin-3-yl)-1,6-dihydro-1,3,5,6-tetraaza-as-indacene] | 10.5 | 52.8 | 12.4 | 67.1
N#Cc1ccc(S(=O)(=O)N2CCC[C@@H](n3cnc4cnc5[nH]ccc5c43)C2)cc1 [Example 360, 4-[(R)-3-(6H-1,3,5,6-Tetraaza-as-indacen-1-yl)-piperidine-1-sulfonyl]-benzonitrile] | 8.12 | 40.8 | 8.43 | 37.2
CS(=O)(=O)N1CCC(n2c(-c3cccnc3)nc3cnc4[nH]ccc4c32)CC1 [Example 361, 1-(1-Methanesulfonyl-piperidin-4-yl)-2-pyridin-3-yl-1,6-dihydro-1,3,5,6-tetraaza-as-indacene] | 248 | 732 | 379 | 354
Cc1nc2cnc3[nH]ccc3c2n1C1CCN(C2COC2)CC1 [Example 363, 2-Methyl-1-(1-oxetan-3-yl-piperidin-4-yl)-1,6-dihydro-1,3,5,6-tetraaza-as-indacene] | 11.2 | 54.6 | 6.05 | 123
c1cc2c(ncc3ncn([C@H]4CCCNC4)c32)[nH]1 [Example 364, (S)-1-Piperidin-3-yl-1,6-dihydro-1,3,5,6-tetraaza-as-indacene] | 179 | 207 | 36.9 | 171
N#CCCN1CCC(n2c(CCNS(=O)(=O)C3CC3)nc3cnc4[nH]ccc4c32)CC1 [Example 370, Cyclopropanesulfonic acid (2-{1-[1-(2-cyano-ethyl)-piperidin-4-yl]-1,6-dihydro-1,3,5,6-tetraaza-as-indacen-2-yl}-ethyl)-amide] | 16.7 | 77.9 | 2.95 | 27.8
COCCC(=O)NCCc1nc2cnc3[nH]ccc3c2n1C1CCN(CCC#N)CC1 [Example 371, N-(2-{1-[1-(2-Cyano-ethyl)-piperidin-4-yl]-1,6-dihydro-1,3,5,6-tetraaza-as-indacen-2-yl}-ethyl)-3-methoxy-propionamide] | 35.5 | 178 | 4.82 | 48.5
COCC(=O)NCCc1nc2cnc3[nH]ccc3c2n1C1CCN(CCC#N)CC1 [Example 372, N-(2-{1-[1-(2-Cyano-ethyl)-piperidin-4-yl]-1,6-dihydro-1,3,5,6-tetraaza-as-indacen-2-yl}-ethyl)-2-methoxy-acetamide] | 22 | 135 | 4.59 | 28.8
N#CCCN1CCC(n2c(CCNC(=O)c3ccc(F)cc3)nc3cnc4[nH]ccc4c32)CC1 [Example 373, N-(2-{1-[1-(2-Cyano-ethyl)-piperidin-4-yl]-1,6-dihydro-1,3,5,6-tetraaza-as-indacen-2-yl}-ethyl)-4-fluoro-benzamide] | 27 | 120 | 4.07 | 52
CC(C)(C)C(=O)NCCc1nc2cnc3[nH]ccc3c2n1C1CCN(CCC#N)CC1 [Example 374, N-(2-{l-[l-(2-Cyano-ethyl)-piperidin-4-yl]-1,6-dihydro-1,3,5,6-tetraaza-as-indacen-2-yl}-ethyl)-2,2-dimethyl-propionamide] | 89.4 | 350 | 4.69 | 100
N#CCCN1CCC(n2c(CCNC(=O)C3CCC3)nc3cnc4[nH]ccc4c32)CC1 [Example 375, Cyclobutanecarboxylic acid (2-{1-[1-(2-cyano-ethyl)-piperidin-4-yl]-1,6-dihydro-1,3,5,6-tetraaza-as-indacen-2-yl}-ethyl)-amide] | 43 | 158 | 4.11 | 59.8
